Experiments:
rat brain mitochondria = experiment: Ca2+-induced swelling of mitochondria (MPT pore opening); assay type: biochemical, Wistar rats; settings: rat brain mitochondria
Experimental: Rat liver and brain mitochondria were prepared from male Wistar rats. The rats were euthanized in a CO2 chamber followed by decapitation the procedure being in compliance with the Guidelines for Animal Experiments at IPAC RAS. […]
Brain mitochondria were isolated from the pooled forebrains of two rats. The modified method of Sims was used to isolate and purify brain mitochondria in a Percoll gradient. The brain was homogenized in “buffer A” (225 mM mannitol, 75 mM sucrose, 5 mM HEPES, 1 mM EGTA, pH 7.4 [KOH]) and centrifuged for 10 min at 1300 g. The supernatant was centrifuged for 10 min at 10000 g, and then the pellet was suspended in 15% Percoll and layered on a discontinuous gradient consisting of 40 and 23% Percoll, respectively, which was then centrifuged for 10 min at 30000 g without using brakes. The mitochondria were collected from the interface of the lower two layers and after resuspension in “buffer A”, the suspension was centrifuged at 16600 g for 10 min, then the pellet was resuspended in “buffer A”, BSA (10 mg/mL) was added to bind free fatty acids; and the suspensions was centrifuged again at 6300 g for 10 min. Following centrifugation the pelleted mitochondria were re-suspended in isolation medium without EGTA to achieve a protein concentration of 15-20 mg/ml.
Mitochondrial swelling caused by influx of solutes through open PT pores results in an increase in light transmission (i.e., a reduced turbidity). This turbidity change offers a convenient and frequently used assay of the MPT by measurement of absorbance in mitochondrial suspensions. In the present study, the MPT induced by Ca^2+ and inorganic phosphate (Ca/Pi) was monitored by absorbance changes at 540 nm in a cuvette in a Beckman DU 640 spectrophotometer in 1 ml of buffer A plus 0.8 μM rotenone, 5 mM succinate, 1 mM KH2PO4 and 0.5 mg or 0.2 mg protein of isolated liver or brain mitochondria, accordingly. Reaction was started by the addition of triggering agent (Ca^2+). Pre-treatment and reaction were performed at 30° C. Swelling rate was quantified as ΔA540/min/mg, calculated, in all cases, from a tangent to the steepest portion of the plot of A540 versus time.
Ca^2+-induced Swelling of mitochondria was used as the primary screening test for compounds influence on MPT pore opening. […] But the inhibition of swelling may be connected not only with direct inhibition of MPT pore opening but also with the impairment of respiratory function of mitochondria and with the compounds action on calcium transport into mitochondria. For the primary estimation of these possibilities the mitochondrial membrane potential and calcium retention capacity of mitochondria were measured. […] New synthesized compounds (except C-14 and C-43) alone induced an increase of brain mitochondria suspension turbidity. The mechanism of such effect needs additional investigations.

mice = experiment: recognition test of new location of a known object (spatial memory); assay type: in vivo
[1] = system: synaptosomes of cortex of rat brain; experiment: Glutamate-induced 45Ca2+ uptake into synaptosomes; assay type: biochemical, Wistar rats; settings: for % Ca of control (control-100%), glutamate-induced 45Ca2+ uptake into synaptosomes: rat cortex synaptosomes
Outline: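 Cortical synaptosomes (P2 fraction) from 9-10-day-old Wistar rats, ~1.5-2 mg/ml protein in HEPES-buffered saline with glucose, pH 7.4, stimulated 5 min with 200 μM glutamate at 37° C. 45Ca2+ uptake measured by filtration and scintillation counting; specific uptake with compound expressed as percentage of glutamate-induced uptake, each corrected for unstimulated uptake.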

CN1CCc2c(c3cc(Cl)ccc3n2CCc2noc(-c3ccccc3)n2)C1 [Compound C4-6]
A540 increase in mitochondrial suspension after addition of 100 μM of compound (rat brain mitochondria; 100 μM compound): 28 rel.units
IC50 (rat brain mitochondria; read-out: IC50, Ca2+-induced (25-50 μM) swelling of brain mitochondria, Ca2+ 25-50 μM): 6 ± 1.2 µM
Influence on memory in the test recognition new localization of known object (mice; Dose of Compound 0.05 mg/kg): −
Influence on memory in the test recognition new localization of known object (mice; Dose of Compound 0.1 mg/kg): −
Influence on memory in the test recognition new localization of known object (mice; Dose of Compound 0.5 mg/kg): +
Influence on memory in the test recognition new localization of known object (mice; Dose of Compound 1.0 mg/kg): +
activity on memory: times weaker than dimebon (mice; comparison of effective doses): approximately 5 times
effect of the dose on exploration time / memory (in words) (mice; mice, dose 0.05 mg/kg): not effective
effect of the dose on exploration time / memory (in words) (mice; mice, dose 0.1 mg/kg): not effective
time exploring the object in a new location, % of the total time (mice; mice, dose 0.5 mg/kg): 61.0±4.8%
time exploring the object in the known position, % of the total time (mice; mice, dose 0.5 mg/kg): 39.0±4.8%
time exploring the object in a new location, % of the total time (mice; mice, dose 1 mg/kg): 56.3±7.7%
time exploring the object in the known position, % of the total time (mice; mice, dose 1 mg/kg): 43.7±7.7%
overall effect on memory (in words) (mice; mice, doses 0.05-1 mg/kg): stimulated memory
concentration at which glutamate-induced 45Ca2+ uptake into synaptosomes was increased [1]: 50 to 100 µM
concentration at which glutamate-induced 45Ca2+ uptake into synaptosomes was inhibited [1]: 5 to 10 µM
glutamate-induced 45Ca2+ uptake into synaptosomes of rat cortex, % Ca of control (control-100%) ([1]; C 100 μM): 152.2%
% Ca of control (control-100%), glutamate-induced 45Ca2+ uptake into synaptosomes ([1]; compound 0.1 μM): 103.6 ± 11.4%
% Ca of control (control-100%), glutamate-induced 45Ca2+ uptake into synaptosomes ([1]; compound 0.5 μM): 96.9 ± 11.9%
% Ca of control (control-100%), glutamate-induced 45Ca2+ uptake into synaptosomes ([1]; compound 1 μM): 105.5 ± 5.2%
% Ca of control (control-100%), glutamate-induced 45Ca2+ uptake into synaptosomes ([1]; compound 5 μM): 86.5 ± 6.1%
% Ca of control (control-100%), glutamate-induced 45Ca2+ uptake into synaptosomes ([1]; compound 10 μM): 88.6 ± 2.8%
% Ca of control (control-100%), glutamate-induced 45Ca2+ uptake into synaptosomes ([1]; compound 50 μM): 122.1 ± 8.5%
% Ca of control (control-100%), glutamate-induced 45Ca2+ uptake into synaptosomes ([1]; compound 100 μM): 152.0 ± 6.7%
